Values of other authors as cited in patent US4599352A, “Antineoplastic platinum (IV) complexes and compositions” (priority 1984, dated 1986).

What was measured:
leukemia L1210 = conditions: cited from earlier work
[1] = tested on: sarcoma-180, ascites form; conditions: cited from earlier work

Row | Compound | Antitumor activity ranking (leukemia L1210) | Antitumor efficacy ranking [1]
1 | [Cl][Pt]1([Cl])[NH]C2CCCCC2[NH]1 (single isomer, unassigned) [dichloro (1,2-diaminocyclohexane) platinum (II) complex trans (1) isomer] | highest activity | –
2 | [Cl][Pt]1([Cl])[NH]C2CCCCC2[NH]1 (single isomer, unassigned) [dichloro (1,2-diaminocyclohexane) platinum (II) complex trans (d) isomer] | intermediate activity | –
3 | NC1CCCCC1N.[Cl-].[Cl-].[Pt+2] (stereo not drawn) [Cis-dichloro-cis-1,2-cyclohexanediamine platinum (II)] | least active | more efficacious than the corresponding trans isomers
